*1 amine or outer side, *2 acyl side, *3 side chain or, on linkers, in order; H or OH if unused. Where a SMILES comes first, the peptide text is derived from it. [ ]: non-standard residue; d: D form. The star is where a group is joined. Hydrocinnamoyl(4-OSO3H) = O=C(CCc1ccc(OS(=O)(=O)O)cc1)*; X2 = O=C([C@@H]1CC(OS(=O)(=O)O)CN1[*:1])[*:2]; X5 = CCC[C@H]1CCN([*:1])[C@@H]1C(=O)[*:2]; X4 = O=C(c1ccc2cc(OS(=O)(=O)O)ccc2c1)*; X1 = CCCC1CCN([*:1])[C@@H]1C(=O)[*:2]; X3 = O=C(/C(=C/c1ccccc1)N[*:1])[*:2]; NMeF = CN[C@@H](Cc1ccccc1)C(=O)O; Nle = CCCC[C@H](N)C(=O)O; Ava = NCCCCC(=O)O
Key:
[1] = target: Gastrin/cholecystokinin type B receptor (Cavia porcellus); experiment: Evaluated in vitro for its binding affinity towards cholecystokinin type B receptor of guinea pig cortex
[2] = target: Cholecystokinin receptor type A (Cavia porcellus); experiment: Evaluated in vitro for its binding affinity towards cholecystokinin type A receptor of guinea pig pancreas
[3] = target: Gastrin/cholecystokinin type B receptor (Cavia porcellus); experiment: Evaluated in vitro for its binding affinity towards cholecystokinin type B receptor of guinea pig cortex; remark: listed apart in the source
[4] = target: Gastrin/cholecystokinin type B receptor (Cavia porcellus); experiment: In vitro binding affinity towards Cholecystokinin type B receptor of guinea pig cortex

Structure (SMILES)	IC50 [2]	IC50 [3]	also measured
CCCC[C@H](NC(=O)CCc1ccc(OS(=O)(=O)O)cc1)C(=O)NCC(=O)N[C@@H](Cc1c[nH]c2ccccc12)C(=O)N1CCC(CCC)[C@H]1C(=O)N[C@@H](CC(=O)O)C(=O)N(C)[C@@H](Cc1ccccc1)C(N)=O (some centres undefined) ({Hydrocinnamoyl(4-OSO3H)}-[Nle]GW[X1]D[NMeF]-NH2)	4.2 nM	–	IC50 [1]: 0.3 nM
CCCC[C@H](NC(=O)CCc1ccc(OS(=O)(=O)O)cc1)C(=O)NCC(=O)N[C@@H](Cc1c[nH]c2ccccc12)C(=O)N[C@@H](CCCC)C(=O)N1CC(OS(=O)(=O)O)C[C@H]1C(=O)N[C@@H](Cc1ccccc1)C(N)=O (some centres undefined) ({Hydrocinnamoyl(4-OSO3H)}-[Nle]GW[Nle][X2]F-NH2)	16 nM	–	IC50 [1]: 140 nM
CCCC[C@H](NC(=O)CCc1ccc(OS(=O)(=O)O)cc1)C(=O)NCC(=O)N[C@@H](Cc1c[nH]c2ccccc12)C(=O)N[C@@H](CCCC)C(=O)N[C@@H](CC(=O)O)C(=O)N[C@@H](Cc1ccccc1)C(N)=O	–	0.5 nM	–
CCCC[C@H](NC(=O)[C@H](Cc1c[nH]c2ccccc12)NC(=O)CN1CC[C@H](NC(=O)CCc2ccc(OS(=O)(=O)O)cc2)C1=O)C(=O)N[C@@H](CC(=O)O)C(=O)N[C@@H](Cc1ccccc1)C(N)=O	–	15 nM	–
CCCC[C@H](NC(=O)[C@H](Cc1c[nH]c2ccccc12)NC(=O)CNC(=O)[C@@H](CCCC)NC(=O)CCc1ccc(OS(=O)(=O)O)cc1)C(=O)N[C@@H](CC(=O)O)C(=O)N[C@@H](Cc1ccccc1)C(N)=O	–	–	IC50 [4]: 7.9 nM
CC(C)C[C@H](NC(=O)[C@H](Cc1c[nH]c2ccccc12)NC(=O)CCCCNC(=O)CCc1ccc(OS(=O)(=O)O)cc1)C(=O)N[C@@H](CC(=O)O)C(=O)N[C@@H](Cc1ccccc1)C(N)=O ({Hydrocinnamoyl(4-OSO3H)-Ava}-WLDF-NH2)	–	1.1 nM	–
CCC[C@H]1CCN(C(=O)[C@H](Cc2c[nH]c3ccccc23)NC(=O)CNC(=O)[C@@H]2CCCN2C(=O)CCc2ccc(OS(=O)(=O)O)cc2)[C@@H]1C(=O)N[C@@H](CC(=O)O)C(=O)N(C)[C@@H](Cc1ccccc1)C(N)=O ({Hydrocinnamoyl(4-OSO3H)}-PGW[X5]D[NMeF]-NH2)	–	0.9 nM	–
CCCC[C@H](NC(=O)CCc1ccc(OS(=O)(=O)O)cc1)C(=O)NCC(=O)N[C@@H](Cc1c[nH]c2ccccc12)C(=O)N[C@@H](CCCC)C(=O)N[C@@H](CC(=O)O)C(=O)N/C(=C\c1ccccc1)C(N)=O ({Hydrocinnamoyl(4-OSO3H)}-[Nle]GW[Nle]D[X3]-NH2)	5.3 nM	–	–
CCCC[C@H](NC(=O)CCc1ccc(OS(=O)(=O)O)cc1)C(=O)NCC(=O)N[C@@H](Cc1c[nH]c2ccccc12)C(=O)N[C@@H](CCCC)C(=O)N[C@@H](CC(=O)O)C(=O)N(C)[C@@H](Cc1ccccc1)C(N)=O [CCK7 analogue] ({Hydrocinnamoyl(4-OSO3H)}-[Nle]GW[Nle]D[NMeF]-NH2)	0.99 nM	–	IC50 [1]: 10 nM
CCCC[C@H](NC(=O)c1ccc2cc(OS(=O)(=O)O)ccc2c1)C(=O)NCC(=O)N[C@@H](Cc1c[nH]c2ccccc12)C(=O)N[C@@H](CCCC)C(=O)N[C@@H](CC(=O)O)C(=O)N[C@@H](Cc1ccccc1)C(N)=O (X4-[Nle]GW[Nle]DF-NH2)	–	32 nM	–
CCCC[C@H](NC(=O)[C@H](Cc1c[nH]c2ccccc12)NC(=O)CNC(=O)[C@H](CC(C)C)NC(=O)CCc1ccc(OS(=O)(=O)O)cc1)C(=O)N[C@@H](CC(=O)O)C(=O)N[C@@H](Cc1ccccc1)C(N)=O ({Hydrocinnamoyl(4-OSO3H)}-LGW[Nle]DF-NH2)	–	0.59 nM	–

— BindingDB's records for doi:10.1021/jm00094a001 (Abbott Laboratories, 1992)
